# From patent US7135480B2, “Substituted 1-benzoyl-3-cyano-pyrrolo [1,2-a] quinolines and analogs as activators of caspases and inducers of apoptosis” (Cytovia, Inc., priority 2002, dated 2006)
# Like-named read-outs stand apart in the source and are kept apart here.
# Legend:
# T-47D [1] = assay: Caspase cascade activation assay (N-(Ac-DEVD)-N'-ethoxycarbonyl-R110 fluorogenic substrate) in T-47D cells; assay type: cell-based, Human; conditions: for EC50: read-out: Caspase potency EC50; for Caspase activity (Ratio): ratio of net RFU of compound to control, 0.16 to 10 μM final
# Procedure: (§1) Human breast cancer cell lines T-47D and ZR-75-1 were grown according to media component mixtures designated by American Type Culture Collection +10% FCS (Invitrogen Corporation), in a 5% CO2–95% humidity incubator at 37° C. T-47D and ZR-75-1 cells were maintained at a cell density between 30 and 80% confluency and for HL-60 at a cell density of 0.1 to 0.6×10^6 cells/mL. Cells were harvested at 600×g and resuspended at 0.65×10^6 cells/mL into appropriate media +10% FCS. An aliquot of 45 μL of cells was added to a well of a 96-well microtiter plate containing 5 μL of a 10% DMSO in RPMI-1640 media solution containing 1.6 to 100 μM of 1-benzoyl-3-cyano-pyrrolo[1,2-a]quinoline or other test compound (0.16 to 10 μM final). An aliquot of 45 μL of cells was added to a well of a 96-well microtiter plate containing 5 μL of a 10% DMSO in RPMI-1640 media solution without test compound as the control sample. The samples were mixed by agitation and then incubated at 37° C. for 24 h in a 5% CO2–95% humidity incubator. After incubation, the samples were removed from the incubator and 50 μL of a solution containing 20 μM of N-(Ac-DEVD)-N′-ethoxycarbonyl-R110 fluorogenic substrate (SEQ ID NO:1) (Cytovia, Inc.; U.S. Pat. No. 6,335,429), 20% sucrose (Sigma), 20 mM DTT (Sigma), 200 mM NaCl (Sigma), 40 mM Na PIPES buffer pH 7.2 (Sigma), and 500 μg/mL lysolecithin (Calbiochem) was added. The samples were mixed by agitation and incubated at room temperature. Using a fluorescent plate reader (Model 1420 Wallac Instruments), an initial reading (T=0) was made approximately 1–2 min after addition of the substrate solution, employing excitation at 485 nm and emission at 530 nm, to determine the background fluorescence of the control sample. After approximately 3 h of incubation, the samples were read for fluorescence as above (T=3 h).
# (§2) The Relative Fluorescence Unit values (RFU) were used to calculate the sample readings as follows: RFU(T=3h)−Control RFU(T=0)=Net RFU(T=3h)
# (§3) The activity of caspase cascade activation was determined by the ratio of the net RFU value for 1-benzoyl-3-cyano-pyrrolo[1,2-a]quinoline to that of control samples. The EC50 (nM) was determined by a sigmoidal dose-response calculation (Prism 2.0, GraphPad Software Inc.).
# ZR-75-1 = assay: Caspase cascade activation assay (N-(Ac-DEVD)-N'-ethoxycarbonyl-R110 fluorogenic substrate) in ZR-75-1 cells; assay type: cell-based, Human; conditions: for EC50: read-out: Caspase potency EC50; for Caspase activity (Ratio): ratio of net RFU of compound to control, 0.16 to 10 μM final
# Procedure: as §1, §2, §3
# T-47D [2] = assay: Inhibition of cell proliferation (GI50, CellTiter 96 AQueous One Solution) in T-47D cells; assay type: cell-based, Human; conditions: read-out: GI50 (dose for 50% inhibition of cell proliferation)
# Procedure: (§4) T-47D and SKBr-3 cells were grown and harvested as in Example 84. An aliquot of 90 μL of cells (2.2×10^4 cells/mL) was added to a well of a 96-well microtiter plate containing 10 μl of a 10% DMSO in RPMI-1640 media solution containing 1 nM to 100 μM of 1-benzoyl-3-cyano-pyrrolo[1,2-a]quinoline (0.1 nM to 10 μM final). An aliquot of 90 μL of cells was added to a well of a 96-well microtiter plate containing 10 μL of a 10% DMSO in RPMI-1640 media solution without compound as the control sample for maximal cell proliferation (AMax). The samples were mixed by agitation and then incubated at 37° C. for 48 h in a 5% CO2–95% humidity incubator. After incubation, the samples were removed from the incubator and 20 μL of CellTiter 96 AQUEOUS One Solution Cell Proliferation™ reagent (Promega) was added. The samples were mixed by agitation and incubated at 37° C. for 2–4 h in a 5% CO2–95% humidity incubator. Using an absorbance plate reader (Model 1420 Wallac Instruments), an initial reading (T=0) was made approximately 1–2 min after addition of the solution, employing absorbance at 490 nm. This determines the possible background absorbance of the test compounds. No absorbance for 1-benzoyl-3-cyano-pyrrolo[1,2-a]quinoline was found at 490 nm. After the 2–4 h incubation, the samples were read for absorbance as above (ATest).
# (§5) Baseline for GI50 (dose for 50% inhibition of cell proliferation) of initial cell numbers were determined by adding an aliquot of 90 μL of cells or 90 μL of media, respectively, to wells of a 96-well microtiter plate containing 10 μL of a 10% DMSO in RPMI-1640 media solution. The samples were mixed by agitation and then incubated at 37° C. for 0.5 h in a 5% CO2–95% humidity incubator. After incubation, the samples were removed from the incubator and 20 μL of CellTiter 96 AQUEOUS One Solution Cell Proliferation ™ reagent (Promega) was added. The samples were mixed by agitation and incubated at 37° C. for 2–4 h in a 5% CO2–95% humidity incubator. Absorbance was read as above, (AStart) defining absorbance for initial cell number used as baseline in GI50 determinations. […]
# SKBr-3 = assay: Inhibition of cell proliferation (GI50, CellTiter 96 AQueous One Solution) in SKBr-3 cells; assay type: cell-based; conditions: read-out: GI50 (dose for 50% inhibition of cell proliferation)
# Procedure: as §4, §5
# [3] = Homo sapiens, T47D, T-47D, 24 h incubation, sigmoidal dose-response
# [4] = Homo sapiens, ZR-75-1, 24 h incubation, sigmoidal dose-response
SMILES,EC50 (T-47D [1]; [3]) [nM],"Caspase activity (Ratio) (T-47D [1]; T-47D, 24 h incubation)",EC50 (ZR-75-1; [4]) [nM],"Caspase activity (Ratio) (ZR-75-1; ZR-75-1, 24 h incubation)",further results
"N#Cc1cc(C(=O)c2ccc(N3CCCC3)cc2)n2c1ccc1ccccc12 [Example 1, 3-Cyano-1-(4-pyrrolidin-1-yl-benzoyl)-pyrrolo[1,2-a]quinoline]",157,10,133,7,"GI50 (T-47D [2]; Homo sapiens, T47D, T-47D, 48 h incubation): 36 nM; GI50 (SKBr-3; Homo sapiens, SK-BR-3, SKBR-3, 48 h incubation): 42 nM"
"N#Cc1cc(C(=O)c2ccccc2)n2c3c(ccc12)CCCC3 [Example 2, 1-Benzoyl-3-cyano-6,7,8,9-tetrahydro-pyrrolo[1,2-a]quinoline]",> 10000,1,5300,2,
"N#Cc1cc(C(=O)c2ccccc2)n2ccccc12 [Example 3, 3-Benzoyl-1-cyano-indolizine]",> 10000,1,> 10000,1,
"COc1cccc(C(=O)c2cc(C#N)c3ccc4ccccc4n23)c1 [Example 4, 3-Cyano-1-(3-methoxy-benzoyl)-pyrrollo[1,2-a]quinoline]",,12,,10,"EC50 (T-47D [1]; T-47D, 24 h incubation, sigmoidal dose-response): 463 nM; EC50 (ZR-75-1; ZR-75-1, 24 h incubation, sigmoidal dose-response): 624 nM; GI50 (T-47D [2]; T-47D, 48 h incubation): 138 nM; GI50 (SKBr-3; SKBR-3, 48 h incubation): 93 nM"
"N#Cc1cc(C(=O)c2cccc(Br)c2)n2c1ccc1ccccc12 [Example 5, 1-(3-Bromo-benzoyl)-3-cyano-pyrrolo[1,2-a]quinoline]",,,159,11,
"Cc1ccc(C(=O)c2cc(C#N)c3ccc4ccccc4n23)cc1 [Example 6, 3-Cyano-1-(4-methyl-benzoyl)-pyrrolo[1,2-a]quinoline]",2410,12,1400,14,
"COc1ccc(C(=O)c2cc(C#N)c3ccc4ccccc4n23)cc1 [Example 7, 3-Cyano-1-(4-methoxy-benzoyl)-pyrrolo[1,2-a]quinoline]",351,13,185,17,
"N#Cc1cc(C(=O)c2ccc(Cl)cc2)n2c1ccc1ccccc12 [Example 8, 1-(4-Chloro-benzoyl)-3-cyano-pyrrolo[1,2-a]quinoline]",587,12,2580,11,
"N#Cc1cc(C(=O)c2ccc(F)cc2)n2c1ccc1ccccc12 [Example 9, 3-Cyano-1-(4-fluoro-benzoyl)-pyrrolo[1,2-a]quinoline]",150,12,150,12,
"N#Cc1cc(C(=O)c2ccc([N+](=O)[O-])cc2)n2c1ccc1ccccc12 [Example 10, 3-Cyano-1-(4-nitro-benzoyl)-pyrrolo[1,2-a]quinoline]",2180,6,1260,14,
"N#Cc1cc(C(=O)c2ccc(N)cc2)n2c1ccc1ccccc12 [Example 11, 1-(4-Amino-benzoyl)-3-cyano-pyrrolo[1,2-a]quinoline]",148,17,147,15,
"Cc1cc2c(C#N)cc(C(=O)c3ccccc3)n2c2ccccc12 [Example 12, 1-Benzoyl-3-cyano-5-methyl-pyrrolo[1,2-a]quinoline]",1160,14,493,13,
"Cc1ccc2c(ccc3c(C#N)cc(C(=O)c4ccccc4)n32)c1 [Example 13, 1-Benzoyl-3-cyano-7-methyl-pyrrolo[1,2-a]quinoline]",> 10000,1,5640,2,
"N#Cc1cc(C(=O)c2ccccc2)n2c1ccc1ccccc12 [Example A, 1-benzoyl-3-cyano-pyrrolo[1,2-a]quinoline]",,7,,10,"EC50 (T-47D [1]; Homo sapiens, T47D, 24 h): 242 nM; EC50 (ZR-75-1; Homo sapiens, ZR-75-1, 24 h): 243 nM; GI50 (T-47D [2]; Homo sapiens, T47D, 48 h): 30 nM; GI50 (SKBr-3; Homo sapiens, SK-BR-3, 48 h): 32 nM"
